# Reference: PubChem BioAssay (NCI)
#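 Assay format: 96-well plates, 48-hour exposure. GI50 = concentration required for 50% inhibition of growth. At the TGI there is no net growth.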
# Columns and labels:
# Test in all cases: NCI-60 cell line screen, 48 h
# TK-10 renal = test system: TK-10 renal
# NCI-H23 lung = test system: NCI-H23 lung
# SK-MEL-5 melanoma = test system: SK-MEL-5 melanoma
# K-562 leukemia = test system: K-562 leukemia
# HOP-62 NSCLC = test system: HOP-62 NSCLC
# SK-MEL-2 melanoma = test system: SK-MEL-2 melanoma
# HCT-15 colon = test system: HCT-15 colon
# HS 578T breast = test system: HS 578T breast
# HL-60(TB) leukemia = test system: HL-60(TB) leukemia
# A498 renal = test system: A498 renal
# NCI-H226 lung = test system: NCI-H226 lung
# NCI-H522 lung = test system: NCI-H522 lung
# 786-0 renal = test system: 786-0 renal
# HCC-2998 colon = test system: HCC-2998 colon
# EKVX NSCLC = test system: EKVX NSCLC
# SF-295 CNS = test system: SF-295 CNS
# UACC-257 melanoma = test system: UACC-257 melanoma
# BT-549 breast = test system: BT-549 breast
# CCRF-CEM leukemia = test system: CCRF-CEM leukemia
# OVCAR-3 ovarian = test system: OVCAR-3 ovarian
# T-47D breast = test system: T-47D breast
# U251 CNS = test system: U251 CNS
# SNB-19 CNS = test system: SNB-19 CNS
# OVCAR-4 ovarian = test system: OVCAR-4 ovarian
# OVCAR-5 ovarian = test system: OVCAR-5 ovarian
# SK-MEL-28 melanoma = test system: SK-MEL-28 melanoma
# SN12C renal = test system: SN12C renal
# M14 melanoma = test system: M14 melanoma
# SW-620 colon = test system: SW-620 colon
# LOX IMVI melanoma = test system: LOX IMVI melanoma
# RXF 393 renal = test system: RXF 393 renal
# COLO 205 colon = test system: COLO 205 colon
# IGROV1 ovarian = test system: IGROV1 ovarian
# MALME-3M melanoma = test system: MALME-3M melanoma
# SF-268 CNS = test system: SF-268 CNS
# CAKI-1 renal = test system: CAKI-1 renal
# KM12 colon = test system: KM12 colon
# DU-145 prostate = test system: DU-145 prostate
# UO-31 renal = test system: UO-31 renal
# MCF7 breast = test system: MCF7 breast
# HCT-116 colon = test system: HCT-116 colon
# MDA-MB-435 = test system: MDA-MB-435
# RPMI-8226 leukemia = test system: RPMI-8226 leukemia
# SK-OV-3 ovarian = test system: SK-OV-3 ovarian
# ACHN renal = test system: ACHN renal
# HT29 colon = test system: HT29 colon
# SR leukemia = test system: SR leukemia
# NCI-H460 lung = test system: NCI-H460 lung
# OVCAR-8 ovarian = test system: OVCAR-8 ovarian
# UACC-62 melanoma = test system: UACC-62 melanoma
# A549 NSCLC = test system: A549 NSCLC
# MDA-MB-231 breast = test system: MDA-MB-231 breast
# PC-3 prostate = test system: PC-3 prostate
# NCI/ADR-RES ovarian = test system: NCI/ADR-RES ovarian
# SF-539 CNS = test system: SF-539 CNS
# SNB-75 CNS = test system: SNB-75 CNS
# MOLT-4 leukemia = test system: MOLT-4 leukemia
# HOP-92 NSCLC = test system: HOP-92 NSCLC
smiles,measurement,setting,value
C[n+]1c(/C=C\c2ccc(Cl)cc2)ccc2ccccc21,GI50,TK-10 renal,> 100 µM
same,TGI,TK-10 renal,> 100 µM
same,GI50,NCI-H23 lung,31 µM
same,TGI,NCI-H23 lung,> 100 µM
same,GI50,SK-MEL-5 melanoma,5.56 µM
same,TGI,SK-MEL-5 melanoma,18 µM
same,GI50,K-562 leukemia,8.69 µM
same,TGI,K-562 leukemia,> 100 µM
same,GI50,HOP-62 NSCLC,29.2 µM
same,TGI,HOP-62 NSCLC,> 100 µM
same,GI50,SK-MEL-2 melanoma,21 µM
same,TGI,SK-MEL-2 melanoma,50.3 µM
same,GI50,HCT-15 colon,53.2 µM
same,TGI,HCT-15 colon,> 100 µM
same,GI50,HS 578T breast,27.4 µM
same,TGI,HS 578T breast,> 100 µM
same,GI50,HL-60(TB) leukemia,24.2 µM
same,TGI,HL-60(TB) leukemia,> 100 µM
same,GI50,A498 renal,4.02 µM
same,TGI,A498 renal,91.3 µM
same,GI50,NCI-H226 lung,72.1 µM
same,TGI,NCI-H226 lung,> 100 µM
same,GI50,NCI-H522 lung,12.4 µM
same,TGI,NCI-H522 lung,89.4 µM
same,GI50,786-0 renal,> 100 µM
same,TGI,786-0 renal,> 100 µM
same,GI50,HCC-2998 colon,31.6 µM
same,TGI,HCC-2998 colon,> 100 µM
same,GI50,EKVX NSCLC,2.45 µM
same,TGI,EKVX NSCLC,> 100 µM
same,GI50,SF-295 CNS,13.8 µM
same,TGI,SF-295 CNS,> 100 µM
same,GI50,UACC-257 melanoma,16.2 µM
same,TGI,UACC-257 melanoma,62.4 µM
same,GI50,BT-549 breast,4.78 µM
same,TGI,BT-549 breast,76.4 µM
same,GI50,CCRF-CEM leukemia,32.4 µM
same,TGI,CCRF-CEM leukemia,> 100 µM
same,GI50,OVCAR-3 ovarian,7.34 µM
same,TGI,OVCAR-3 ovarian,31.4 µM
same,GI50,T-47D breast,21.8 µM
same,TGI,T-47D breast,> 100 µM
same,GI50,U251 CNS,3.7 µM
same,TGI,U251 CNS,> 100 µM
same,GI50,SNB-19 CNS,4.49 µM
same,TGI,SNB-19 CNS,> 100 µM
same,GI50,OVCAR-4 ovarian,12 µM
same,TGI,OVCAR-4 ovarian,> 100 µM
same,GI50,OVCAR-5 ovarian,4.36 µM
same,TGI,OVCAR-5 ovarian,> 100 µM
same,GI50,SK-MEL-28 melanoma,13.6 µM
same,TGI,SK-MEL-28 melanoma,54.3 µM
same,GI50,SN12C renal,4.13 µM
same,TGI,SN12C renal,84 µM
same,GI50,M14 melanoma,12.9 µM
same,TGI,M14 melanoma,46.7 µM
same,GI50,SW-620 colon,4.1 µM
same,TGI,SW-620 colon,63.4 µM
same,GI50,LOX IMVI melanoma,37.4 µM
same,TGI,LOX IMVI melanoma,> 100 µM
same,GI50,RXF 393 renal,31.8 µM
same,TGI,RXF 393 renal,98.3 µM
same,GI50,COLO 205 colon,4.28 µM
same,TGI,COLO 205 colon,24.4 µM
same,GI50,IGROV1 ovarian,27.2 µM
same,TGI,IGROV1 ovarian,> 100 µM
same,GI50,MALME-3M melanoma,11.9 µM
same,TGI,MALME-3M melanoma,36.8 µM
same,GI50,SF-268 CNS,29.8 µM
same,TGI,SF-268 CNS,> 100 µM
same,GI50,CAKI-1 renal,66.6 µM
same,TGI,CAKI-1 renal,> 100 µM
same,GI50,KM12 colon,3.6 µM
same,TGI,KM12 colon,15 µM
same,GI50,DU-145 prostate,89.8 µM
same,TGI,DU-145 prostate,> 100 µM
same,GI50,UO-31 renal,72.5 µM
same,TGI,UO-31 renal,> 100 µM
same,GI50,MCF7 breast,20.2 µM
same,TGI,MCF7 breast,> 100 µM
same,GI50,HCT-116 colon,12.6 µM
same,TGI,HCT-116 colon,> 100 µM
same,GI50,MDA-MB-435,21.5 µM
same,TGI,MDA-MB-435,66.4 µM
same,GI50,RPMI-8226 leukemia,14.4 µM
same,TGI,RPMI-8226 leukemia,> 100 µM
same,GI50,SK-OV-3 ovarian,46.6 µM
same,TGI,SK-OV-3 ovarian,> 100 µM
same,GI50,ACHN renal,81.6 µM
same,TGI,ACHN renal,> 100 µM
same,GI50,HT29 colon,19.4 µM
same,TGI,HT29 colon,> 100 µM
same,GI50,SR leukemia,45.8 µM
same,TGI,SR leukemia,> 100 µM
same,GI50,NCI-H460 lung,32.7 µM
same,TGI,NCI-H460 lung,> 100 µM
same,GI50,OVCAR-8 ovarian,6.82 µM
same,TGI,OVCAR-8 ovarian,91.1 µM
same,GI50,UACC-62 melanoma,17.7 µM
same,TGI,UACC-62 melanoma,52 µM
same,GI50,A549 NSCLC,1.04 µM
same,TGI,A549 NSCLC,> 100 µM
same,GI50,MDA-MB-231 breast,38.9 µM
same,TGI,MDA-MB-231 breast,> 100 µM
same,GI50,PC-3 prostate,13.3 µM
same,TGI,PC-3 prostate,> 100 µM
same,GI50,NCI/ADR-RES ovarian,> 100 µM
same,TGI,NCI/ADR-RES ovarian,> 100 µM
same,GI50,SF-539 CNS,15.9 µM
same,TGI,SF-539 CNS,92.2 µM
same,GI50,SNB-75 CNS,23.2 µM
same,TGI,SNB-75 CNS,> 100 µM
same,GI50,MOLT-4 leukemia,> 100 µM
same,TGI,MOLT-4 leukemia,> 100 µM
CCCCCCCC1(N=[N+]=[N-])C(=O)c2ccccc2N(C)C1=O (centres undefined),TGI,TK-10 renal,> 100 µM
same,TGI,NCI-H23 lung,> 100 µM
same,TGI,SK-MEL-5 melanoma,> 100 µM
same,TGI,HOP-62 NSCLC,> 100 µM
same,TGI,HCT-15 colon,> 100 µM
same,TGI,HS 578T breast,> 100 µM
same,TGI,HL-60(TB) leukemia,99.1 µM
same,TGI,A498 renal,> 100 µM
same,TGI,NCI-H226 lung,> 100 µM
same,TGI,HOP-92 NSCLC,89.6 µM
same,TGI,NCI-H522 lung,> 100 µM
same,TGI,786-0 renal,> 100 µM
same,TGI,HCC-2998 colon,> 100 µM
same,TGI,EKVX NSCLC,> 100 µM
same,TGI,SF-295 CNS,> 100 µM
same,TGI,UACC-257 melanoma,> 100 µM
same,TGI,BT-549 breast,> 100 µM
same,TGI,CCRF-CEM leukemia,> 100 µM
same,TGI,OVCAR-3 ovarian,> 100 µM
same,TGI,T-47D breast,> 100 µM
same,TGI,U251 CNS,> 100 µM
same,TGI,SNB-19 CNS,> 100 µM
same,TGI,OVCAR-4 ovarian,> 100 µM
same,TGI,OVCAR-5 ovarian,> 100 µM
same,TGI,SK-MEL-28 melanoma,> 100 µM
same,TGI,SN12C renal,> 100 µM
same,TGI,M14 melanoma,> 100 µM
same,TGI,SW-620 colon,> 100 µM
same,TGI,LOX IMVI melanoma,> 100 µM
same,TGI,RXF 393 renal,> 100 µM
same,TGI,COLO 205 colon,> 100 µM
same,TGI,IGROV1 ovarian,> 100 µM
same,TGI,MALME-3M melanoma,> 100 µM
same,TGI,SF-268 CNS,> 100 µM
same,TGI,CAKI-1 renal,> 100 µM
same,TGI,KM12 colon,> 100 µM
same,TGI,DU-145 prostate,> 100 µM
same,TGI,MCF7 breast,> 100 µM
same,TGI,HCT-116 colon,> 100 µM
same,TGI,MDA-MB-435,> 100 µM
same,TGI,RPMI-8226 leukemia,> 100 µM
same,TGI,SK-OV-3 ovarian,> 100 µM
same,TGI,ACHN renal,> 100 µM
same,TGI,HT29 colon,> 100 µM
same,TGI,SR leukemia,> 100 µM
same,TGI,NCI-H460 lung,> 100 µM
same,TGI,OVCAR-8 ovarian,> 100 µM
same,TGI,UACC-62 melanoma,> 100 µM
same,TGI,A549 NSCLC,> 100 µM
same,TGI,MDA-MB-231 breast,> 100 µM
same,TGI,PC-3 prostate,> 100 µM
same,TGI,NCI/ADR-RES ovarian,> 100 µM
same,TGI,SF-539 CNS,> 100 µM
same,TGI,SNB-75 CNS,> 100 µM
same,TGI,MOLT-4 leukemia,> 100 µM
